Reference: patent US9790188B2, “Benzimidazole derivatives and uses thereof” (Whitehead Institute for Biomedical Research, priority 2013, dated 2017)
“Also recorded” adds a separate entry of the source.

How the values were obtained:
reactive oxygen species = assay: ROS detection (CM-H2DCFDA, flow cytometry) in α-syn yeast; assay type: cell-based; settings: 10 μM, HiTox strain
Experimental: The generation of reactive oxygen species (ROS) detected from yeast expressing untagged α-syn using the ROS sensing dye, CM-H2DCFDA (Invitrogen), as previously described (9). Briefly, log phase raffinose cultures of α-syn (non-GFP tagged) were induced with galactose with or without ABI1 for 6 hours. At this time, the dye was added for an additional 30 minutes. Cells were then analyzed using an EasyCyte flow cytometer (Guava Technologies).

[1] = tested on: dopaminergic (DA) neurons; assay: C. elegans model of α-syn toxicity; assay type: in vivo; settings: nematodes expressing α-syn and GFP in DA neurons
Experimental: Drug treatments of the C. elegans α-syn model were performed as previously described (6). Briefly, age-synchronized worms were obtained by treating gravid adults with 2% sodium hyopchlorite and 0.5M NaOH to isolate embryos (36). Variable concentrations of ABI1 or 0.2% DMSO was applied to embryos suspended in M9 buffer (22 mM KH2PO4, […], 85 mM NaCl, 1 mM MgSO4) (time 0), and incubated at 25 C for 24 hours to obtain a synchronized L1 population. Worms were washed three times in distilled water and one additional rinse in M9 buffer. The synchronized L1 worms were plated on regular nematode growth media (NGM) plates seeded with 100 uL of Eschericia coli (OP50). Worms were then transferred every other day to new plates to insure food abundance and eliminate progeny contamination. Worms were then analyzed seven days post-hatching. Analyses were carried out according to the criteria previously described (37). In each case, ˜30-40 animals were scored for the percent of WT animals. Experiments were completed in triplicate and averages calculated. A one-way ANOVA and Tukey's test was used to determine significance.

WT yeast = assay: Growth inhibition of wild-type yeast (dose-response); assay type: cell-based; settings: at concentrations higher than those that rescue α-syn toxicity
Experimental: Source plates were assembled in 96 well plates using multichannel pipettes to dilute rows in 1.6-fold serial dilutions of CSMGal. […] For α-syn, the final starting OD600 was 0.02. Drug concentration ranges varied depending on efficacy, growth inhibition, and solubility in media. A Tecan EvoFreedom liquid handling robot was then used to transfer culture from 96 to 384 well format with each well being represented four times. Final well volume was 35 μL. Plates were then incubated in humidified containers at 30° C. for either 24 or 40 hours. Plates were then read with a Tecan Saphire plate reader at OD600.
Raw OD600 values were transformed to “Relative Growth” in WT cells or “% Maximum Rescue” in α-syn experiments. In WT cells, the well background was subtracted and all values were then normalized to 100% for the untreated condition. In α-syn rescue experiments, the well background was subtracted and the maximum rescue in the particular experiment was normalized to 100%.

Nedd4 = biological target: T1, Nedd4 (Homo sapiens, UniProt P46934); settings: pers. comm.; cited from earlier work
T1 sequence (P46934 1-1319): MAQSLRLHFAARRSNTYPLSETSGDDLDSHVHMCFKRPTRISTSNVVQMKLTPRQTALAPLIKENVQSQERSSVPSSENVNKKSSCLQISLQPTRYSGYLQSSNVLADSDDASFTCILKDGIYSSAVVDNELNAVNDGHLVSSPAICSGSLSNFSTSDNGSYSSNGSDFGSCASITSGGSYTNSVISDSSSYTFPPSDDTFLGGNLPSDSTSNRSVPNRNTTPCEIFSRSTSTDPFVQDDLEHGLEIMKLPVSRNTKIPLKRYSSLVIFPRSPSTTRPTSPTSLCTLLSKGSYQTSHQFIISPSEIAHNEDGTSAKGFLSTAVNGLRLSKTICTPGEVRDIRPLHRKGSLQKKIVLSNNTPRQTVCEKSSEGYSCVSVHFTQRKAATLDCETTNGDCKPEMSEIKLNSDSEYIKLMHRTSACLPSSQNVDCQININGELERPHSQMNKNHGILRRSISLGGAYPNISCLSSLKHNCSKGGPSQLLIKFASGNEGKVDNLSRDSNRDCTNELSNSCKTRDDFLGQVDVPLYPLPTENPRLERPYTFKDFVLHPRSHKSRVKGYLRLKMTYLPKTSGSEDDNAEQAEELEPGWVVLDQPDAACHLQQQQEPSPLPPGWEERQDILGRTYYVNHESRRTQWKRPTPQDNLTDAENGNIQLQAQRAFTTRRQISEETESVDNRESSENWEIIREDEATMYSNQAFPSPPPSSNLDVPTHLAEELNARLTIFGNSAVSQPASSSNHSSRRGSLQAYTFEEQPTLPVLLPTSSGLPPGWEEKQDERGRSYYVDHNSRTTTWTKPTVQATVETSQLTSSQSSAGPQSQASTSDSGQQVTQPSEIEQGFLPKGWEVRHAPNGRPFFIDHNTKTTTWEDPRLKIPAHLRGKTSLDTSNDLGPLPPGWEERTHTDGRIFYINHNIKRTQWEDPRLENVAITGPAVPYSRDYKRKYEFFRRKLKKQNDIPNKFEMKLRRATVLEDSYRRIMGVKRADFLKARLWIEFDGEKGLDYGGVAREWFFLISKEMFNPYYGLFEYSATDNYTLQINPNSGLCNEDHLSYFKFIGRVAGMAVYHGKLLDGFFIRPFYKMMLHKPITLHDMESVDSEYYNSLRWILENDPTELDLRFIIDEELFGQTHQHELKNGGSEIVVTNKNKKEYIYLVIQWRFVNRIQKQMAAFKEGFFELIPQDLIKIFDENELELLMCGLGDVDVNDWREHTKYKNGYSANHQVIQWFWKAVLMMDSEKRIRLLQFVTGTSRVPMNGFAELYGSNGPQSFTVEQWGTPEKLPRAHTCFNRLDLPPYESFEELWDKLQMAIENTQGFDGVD

Question: With `Cc1cccc(-n2cnc3cc(C(=O)NCc4ccccc4Cl)ccc32)c1` [ABI, N-(2-chlorobenzyl)-1-(m-tolyl)-1H-benzo[d]imidazole-5-carboxamide] as the compound, how does the “generation of reactive oxygen species (% of ROS-positive cells)” value (reactive oxygen species) read?
Answer: Its value is “completely abolished; also recorded: reduced the % of ROS-positive cells”.

Question: And the “rescue of DA neurons from α-syn toxicity” value [1]?
Answer: Its value is “partial, yet highly significant, rescue”.

Question: And the “growth inhibition of wild-type cells” value (WT yeast)?
Answer: Its value is “inhibited the growth of wild-type cells”.

Question: What about the “ubiquitination of recombinant Nedd4 in vitro” value (Nedd4) of the same compound?
Answer: The value was “did not enhance ubiquitination”.
